What was measured:
Assay in all cases: Test J pre-/postemergence, mixtures of Cpd. No. 20 with (b15C2)
Type in all cases: in vivo
[1] = tested on: common ragweed (AMBEL; Ambrosia artemisiifolia)
From the text: (§1) This test evaluated the effect of mixtures of Cpd. No. 20 with (b15C2) on several plant species. Seeds of plant species selected from corn (ZEAMD; Zea mays, cv. ‘Pioneer 1184’), soybean (GLXMA; Glycine max, cv. Pioneer 35T58), giant foxtail (SETFA; Setaria faberi), palmer amaranth (AMAPA; Amaranthus palmeri), common waterhemp (AMATU; Amaranthus rudis), mare's tail (ERICA; Conyza canadensis), and common ragweed (AMBEL; Ambrosia artemisiifolia) were planted in pots containing Tama Silt Loam soil and treated preemergence with a directed soil spray using test chemicals formulated in a non-phytotoxic solvent mixture which included a surfactant.
(§2) At the same time, plants selected from these crop and weed species were planted in pots containing Redi-Earth® planting medium (Scotts Company, 14111 Scottslawn Road, Marysville, Ohio 43041) comprising spaghnum peat moss, vermiculite, wetting agent and starter nutrients and treated postemergence with test chemicals formulated in the same manner. Plants ranged in height from 2 to 10 cm and were in the one- to two-leaf stage for the postemergence treatment. Treated plants and untreated controls were maintained in a greenhouse for approximately 14-21 d, after which time all treated plants were compared to untreated controls and visually evaluated for injury. Plant response ratings, summarized in Tables J1 & J2, are based on a 0 to 100 scale where 0 is no effect and 100 is complete control. A dash (-) response means no test result. Test results are presented as a mean of 4 reps.

[2] = tested on: common waterhemp (AMATU; Amaranthus rudis)
From the text: as §1, §2

[3] = tested on: corn (ZEAMD; Zea mays, cv. ‘Pioneer 1184’)
From the text: as §1, §2

[4] = tested on: giant foxtail (SETFA; Setaria faberi)
From the text: as §1, §2

[5] = tested on: mare's tail (ERICA; Conyza canadensis)
From the text: as §1, §2

[6] = tested on: palmer amaranth (AMAPA; Amaranthus palmeri)
From the text: as §1, §2

[7] = tested on: soybean (GLXMA; Glycine max, cv. Pioneer 35T58)
From the text: as §1, §2

Structure (SMILES): O=C(CCC(F)(F)F)c1c(Cl)cccc1Oc1ncc(Cl)cn1 [(b15C2), 1-[2-chloro-6-[(5-chloro-2-pyrimidinyl)oxy]phenyl]-4,4,4-trifluoro-1-butanone, reference compound]
- AMBEL plant response rating, 0 to 100 scale ([1]; postemergence, 8 g a.i./ha): 5
- AMBEL plant response rating, 0 to 100 scale ([1]; postemergence, 16 g a.i./ha): 3
- AMBEL plant response rating, 0 to 100 scale ([1]; postemergence, 31 g a.i./ha): 10
- AMBEL plant response rating, 0 to 100 scale ([1]; postemergence, 62 g a.i./ha): 20
- AMBEL plant response rating, 0 to 100 scale ([1]; preemergence, 8 g a.i./ha): 0
- AMBEL plant response rating, 0 to 100 scale ([1]; preemergence, 16 g a.i./ha): 0
- AMBEL plant response rating, 0 to 100 scale ([1]; preemergence, 31 g a.i./ha): 0
- AMBEL plant response rating, 0 to 100 scale ([1]; preemergence, 62 g a.i./ha): 15
- AMATU plant response rating, 0 to 100 scale ([2]; postemergence, 8 g a.i./ha): 43
- AMATU plant response rating, 0 to 100 scale ([2]; postemergence, 16 g a.i./ha): 55
- AMATU plant response rating, 0 to 100 scale ([2]; postemergence, 31 g a.i./ha): 75
- AMATU plant response rating, 0 to 100 scale ([2]; postemergence, 62 g a.i./ha): 83
- AMATU plant response rating, 0 to 100 scale ([2]; preemergence, 8 g a.i./ha): 20
- AMATU plant response rating, 0 to 100 scale ([2]; preemergence, 16 g a.i./ha): 79
- AMATU plant response rating, 0 to 100 scale ([2]; preemergence, 31 g a.i./ha): 100
- AMATU plant response rating, 0 to 100 scale ([2]; preemergence, 62 g a.i./ha): 100
- ZEAMD plant response rating, 0 to 100 scale ([3]; postemergence, 8 g a.i./ha): 3
- ZEAMD plant response rating, 0 to 100 scale ([3]; postemergence, 16 g a.i./ha): 5
- ZEAMD plant response rating, 0 to 100 scale ([3]; postemergence, 31 g a.i./ha): 9
- ZEAMD plant response rating, 0 to 100 scale ([3]; postemergence, 62 g a.i./ha): 10
- ZEAMD plant response rating, 0 to 100 scale ([3]; preemergence, 8 g a.i./ha): 0
- ZEAMD plant response rating, 0 to 100 scale ([3]; preemergence, 16 g a.i./ha): 0
- ZEAMD plant response rating, 0 to 100 scale ([3]; preemergence, 31 g a.i./ha): 0
- ZEAMD plant response rating, 0 to 100 scale ([3]; preemergence, 62 g a.i./ha): 0
- SETFA plant response rating, 0 to 100 scale ([4]; postemergence, 8 g a.i./ha): 5
- SETFA plant response rating, 0 to 100 scale ([4]; postemergence, 16 g a.i./ha): 5
- SETFA plant response rating, 0 to 100 scale ([4]; postemergence, 31 g a.i./ha): 8
- SETFA plant response rating, 0 to 100 scale ([4]; postemergence, 62 g a.i./ha): 6
- SETFA plant response rating, 0 to 100 scale ([4]; preemergence, 8 g a.i./ha): 8
- SETFA plant response rating, 0 to 100 scale ([4]; preemergence, 16 g a.i./ha): 64
- SETFA plant response rating, 0 to 100 scale ([4]; preemergence, 31 g a.i./ha): 95
- SETFA plant response rating, 0 to 100 scale ([4]; preemergence, 62 g a.i./ha): 100
- ERICA plant response rating, 0 to 100 scale ([5]; postemergence, 8 g a.i./ha): 0
- ERICA plant response rating, 0 to 100 scale ([5]; postemergence, 16 g a.i./ha): 0
- ERICA plant response rating, 0 to 100 scale ([5]; postemergence, 31 g a.i./ha): 0
- ERICA plant response rating, 0 to 100 scale ([5]; postemergence, 62 g a.i./ha): 5
- ERICA plant response rating, 0 to 100 scale ([5]; preemergence, 8 g a.i./ha): 0
- ERICA plant response rating, 0 to 100 scale ([5]; preemergence, 16 g a.i./ha): 0
- ERICA plant response rating, 0 to 100 scale ([5]; preemergence, 31 g a.i./ha): 0
- ERICA plant response rating, 0 to 100 scale ([5]; preemergence, 62 g a.i./ha): 13
- AMAPA plant response rating, 0 to 100 scale ([6]; postemergence, 8 g a.i./ha): 20
- AMAPA plant response rating, 0 to 100 scale ([6]; postemergence, 16 g a.i./ha): 38
- AMAPA plant response rating, 0 to 100 scale ([6]; postemergence, 31 g a.i./ha): 56
- AMAPA plant response rating, 0 to 100 scale ([6]; postemergence, 62 g a.i./ha): 74
- AMAPA plant response rating, 0 to 100 scale ([6]; preemergence, 8 g a.i./ha): 63
- AMAPA plant response rating, 0 to 100 scale ([6]; preemergence, 16 g a.i./ha): 90
- AMAPA plant response rating, 0 to 100 scale ([6]; preemergence, 31 g a.i./ha): 100
- AMAPA plant response rating, 0 to 100 scale ([6]; preemergence, 62 g a.i./ha): 100
- GLXMA plant response rating, 0 to 100 scale ([7]; postemergence, 8 g a.i./ha): 20
- GLXMA plant response rating, 0 to 100 scale ([7]; postemergence, 16 g a.i./ha): 29
- GLXMA plant response rating, 0 to 100 scale ([7]; postemergence, 31 g a.i./ha): 43
- GLXMA plant response rating, 0 to 100 scale ([7]; postemergence, 62 g a.i./ha): 68
- GLXMA plant response rating, 0 to 100 scale ([7]; preemergence, 8 g a.i./ha): 0
- GLXMA plant response rating, 0 to 100 scale ([7]; preemergence, 16 g a.i./ha): 0
- GLXMA plant response rating, 0 to 100 scale ([7]; preemergence, 31 g a.i./ha): 0
- GLXMA plant response rating, 0 to 100 scale ([7]; preemergence, 62 g a.i./ha): 0

Reference: patent US12435044B2, “Pyridazinone herbicides and pyridazinone intermediates used to prepare a herbicide” (FMC Corporation, priority 2018, dated 2025)
